Data: ChEMBL document CHEMBL4316596, “Antimicrobial Peptides with High Proteolytic Resistance for Combating Gram-Negative Bacteria” (J Med Chem, 2019)

Key:
Escherichia coli [1] = assay: Antimicrobial activity against Escherichia coli ATCC 25922 after 24 hrs by NCCLS-protocol based assay; format: functional; settings: ATCC 25922, 24 h
Escherichia coli [2] = assay: Antimicrobial activity against Escherichia coli UB1005 after 24 hrs by NCCLS-protocol based assay; format: functional; settings: UB1005, 24 h
Escherichia coli [3] = assay: Antimicrobial activity against Escherichia coli 078 after 24 hrs by NCCLS-protocol based assay; format: functional; settings: Escherichia coli, 078, 24 h
Escherichia coli [4] = assay: Antimicrobial activity against Escherichia coli K88 after 24 hrs by NCCLS-protocol based assay; format: functional; settings: K88, 24 h
Escherichia coli [5] = assay: Antimicrobial activity against Escherichia coli K99 after 24 hrs by NCCLS-protocol based assay; format: functional; settings: K99, 24 h
Pseudomonas aeruginosa [6] = assay: Antimicrobial activity against Pseudomonas aeruginosa ATCC 27853 after 24 hrs by NCCLS-protocol based assay; format: functional; settings: ATCC 27853, 24 h
Pseudomonas aeruginosa [7] = assay: Antimicrobial activity against Pseudomonas aeruginosa PAO1 after 24 hrs by NCCLS-protocol based assay; format: functional; settings: PAO1, 24 h
Pseudomonas aeruginosa [8] = assay: Antimicrobial activity against Pseudomonas aeruginosa CICC 21630 clinical isolates after 24 hrs by NCCLS-protocol based assay; format: functional; settings: CICC 21630, 24 h
Pseudomonas aeruginosa [9] = assay: Antimicrobial activity against Pseudomonas aeruginosa 26305 clinical isolates after 24 hrs by NCCLS-protocol based assay; format: functional; settings: Pseudomonas aeruginosa, 26305, 24 h
Pseudomonas aeruginosa [10] = assay: Antimicrobial activity against Pseudomonas aeruginosa CICC 21625 clinical isolates after 24 hrs by NCCLS-protocol based assay; format: functional; settings: CICC 21625, 24 h
Pseudomonas aeruginosa [11] = assay: Antimicrobial activity against Pseudomonas aeruginosa 25349 clinical isolates after 24 hrs by NCCLS-protocol based assay; format: functional; settings: Pseudomonas aeruginosa, 25349, 24 h
Salmonella typhimurium [12] = assay: Antimicrobial activity against Salmonella typhimurium ATCC 14028 after 24 hrs by NCCLS-protocol based assay; format: functional, Salmonella enterica subsp. enterica serovar Typhimurium; settings: Salmonella enterica, ATCC 14028, 24 h
Salmonella typhimurium [13] = assay: Antimicrobial activity against Salmonella typhimurium C7731 after 24 hrs by NCCLS-protocol based assay; format: functional, Salmonella enterica subsp. enterica serovar Typhimurium; settings: Salmonella enterica, C7731, 24 h
[14] = Antimicrobial activity against Salmonella pullorum C7913 after 24 hrs by NCCLS-protocol based assay; format: functional, Salmonella enterica subsp. enterica serovar Pullorum; settings: Salmonella enterica, C7913, 24 h
Acinetobacter baumannii [15] = assay: Antimicrobial activity against Acinetobacter baumannii after 24 hrs by NCCLS-protocol based assay; format: functional
Klebsiella pneumoniae [16] = assay: Antimicrobial activity against Klebsiella pneumoniae after 24 hrs by NCCLS-protocol based assay; format: functional
Escherichia coli [17] = assay: Bactericidal activity against Escherichia coli ATCC 25922 incubated for 4 hrs followed by culture spread on agar plates and cultured overnight; format: functional; settings: ATCC 25922, 4 h, read-out: MBC>99.9
Escherichia coli [18] = assay: Bactericidal activity against Escherichia coli UB1005 incubated for 4 hrs followed by culture spread on agar plates and cultured overnight; format: functional; settings: UB1005, 4 h, read-out: MBC>99.9
Escherichia coli [19] = assay: Bactericidal activity against Escherichia coli 078 incubated for 4 hrs followed by culture spread on agar plates and cultured overnight; format: functional; settings: Escherichia coli, 078, 4 h; read-out: MBC>99.9
Escherichia coli [20] = assay: Bactericidal activity against Escherichia coli K88 incubated for 4 hrs followed by culture spread on agar plates and cultured overnight; format: functional; settings: K88, 4 h, read-out: MBC>99.9
Escherichia coli [21] = assay: Bactericidal activity against Escherichia coli K99 incubated for 4 hrs followed by culture spread on agar plates and cultured overnight; format: functional; settings: K99, 4 h, read-out: MBC>99.9
Pseudomonas aeruginosa [22] = assay: Bactericidal activity against Pseudomonas aeruginosa ATCC 27853 incubated for 4 hrs followed by culture spread on agar plates and cultured overnight; format: functional; settings: ATCC 27853, 4 h, read-out: MBC>99.9
Pseudomonas aeruginosa [23] = assay: Bactericidal activity against Pseudomonas aeruginosa PAO1 incubated for 4 hrs followed by culture spread on agar plates and cultured overnight; format: functional; settings: PAO1, 4 h, read-out: MBC>99.9
Pseudomonas aeruginosa [24] = assay: Bactericidal activity against Pseudomonas aeruginosa CICC 21630 clinical isolates incubated for 4 hrs followed by culture spread on agar plates and cultured overnight; format: functional; settings: CICC 21630, 4 h, read-out: MBC>99.9
Pseudomonas aeruginosa [25] = assay: Bactericidal activity against Pseudomonas aeruginosa 26305 clinical isolates incubated for 4 hrs followed by culture spread on agar plates and cultured overnight; format: functional; settings: Pseudomonas aeruginosa, 26305, 4 h; read-out: MBC>99.9
Pseudomonas aeruginosa [26] = assay: Bactericidal activity against Pseudomonas aeruginosa CICC 21625 clinical isolates incubated for 4 hrs followed by culture spread on agar plates and cultured overnight; format: functional; settings: CICC 21625, 4 h, read-out: MBC>99.9
Pseudomonas aeruginosa [27] = assay: Bactericidal activity against Pseudomonas aeruginosa 25349 clinical isolates incubated for 4 hrs followed by culture spread on agar plates and cultured overnight; format: functional; settings: Pseudomonas aeruginosa, 25349, 4 h; read-out: MBC>99.9
Salmonella typhimurium [28] = assay: Bactericidal activity against Salmonella typhimurium ATCC 14028 incubated for 4 hrs followed by culture spread on agar plates and cultured overnight; format: functional, Salmonella enterica subsp. enterica serovar Typhimurium; settings: Salmonella enterica, ATCC 14028, 4 h; read-out: MBC>99.9
Salmonella typhimurium [29] = assay: Bactericidal activity against Salmonella typhimurium C7731 incubated for 4 hrs followed by culture spread on agar plates and cultured overnight; format: functional, Salmonella enterica subsp. enterica serovar Typhimurium; settings: Salmonella enterica, C7731, 4 h; read-out: MBC>99.9
[30] = Bactericidal activity against Salmonella pullorum C7913 incubated for 4 hrs followed by culture spread on agar plates and cultured overnight; format: functional, Salmonella enterica subsp. enterica serovar Pullorum; settings: Salmonella enterica, C7913, 4 h; read-out: MBC>99.9
Acinetobacter baumannii [31] = assay: Bactericidal activity against Acinetobacter baumannii incubated for 4 hrs followed by culture spread on agar plates and cultured overnight; format: functional; settings: read-out: MBC>99.9
Klebsiella pneumoniae [32] = assay: Bactericidal activity against Klebsiella pneumoniae incubated for 4 hrs followed by culture spread on agar plates and cultured overnight; format: functional; settings: read-out: MBC>99.9

Row | Substance | MIC95 (Escherichia coli [1]) [µM] | MIC95 (Escherichia coli [2]) [µM] | MIC95 (Escherichia coli [3]) [µM] | MIC95 (Escherichia coli [4]) [µM] | MIC95 (Escherichia coli [5]) [µM] | MIC95 (Pseudomonas aeruginosa [6]) [µM] | MIC95 (Pseudomonas aeruginosa [7]) [µM] | MIC95 (Pseudomonas aeruginosa [8]) [µM] | MIC95 (Pseudomonas aeruginosa [9]) [µM] | MIC95 (Pseudomonas aeruginosa [10]) [µM] | MIC95 (Pseudomonas aeruginosa [11]) [µM] | MIC95 (Salmonella typhimurium [12]) [µM] | MIC95 (Salmonella typhimurium [13]) [µM] | MIC95 [14] [µM] | MIC95 (Acinetobacter baumannii [15]) [µM] | MIC95 (Klebsiella pneumoniae [16]) [µM] | MBC (Escherichia coli [17]) [µM] | MBC (Escherichia coli [18]) [µM] | MBC (Escherichia coli [19]) [µM] | MBC (Escherichia coli [20]) [µM] | also measured
1 | H-IRPIIRPIIRPIIRPI-NH2 | 16 | 16 | 16 | 4 | 8 | > 64 | > 64 | > 64 | > 64 | > 64 | > 64 | 16 | 16 | 16 | 8 | 32 | 32 | 16 | 32 | 8 | MBC (Escherichia coli [21]): 16 µM; MBC (Pseudomonas aeruginosa [22]): > 64 µM; MBC (Pseudomonas aeruginosa [23]): > 64 µM; MBC (Pseudomonas aeruginosa [24]): > 64 µM; MBC (Pseudomonas aeruginosa [25]): > 64 µM; MBC (Pseudomonas aeruginosa [26]): > 64 µM; MBC (Pseudomonas aeruginosa [27]): > 64 µM; MBC (Salmonella typhimurium [28]): 16 µM; MBC (Salmonella typhimurium [29]): 32 µM; MBC [30]: 16 µM; MBC (Acinetobacter baumannii [31]): 8 µM; MBC (Klebsiella pneumoniae [32]): 32 µM
2 | H-VKPVVKPVVKPVVKPVVKPVVKPVVKPV-NH2 | > 64 | > 64 | > 64 | > 64 | > 64 | > 64 | > 64 | > 64 | > 64 | > 64 | > 64 | > 64 | > 64 | > 64 | > 64 | > 64 | > 64 | > 64 | > 64 | > 64 | MBC (Escherichia coli [21]): > 64 µM; MBC (Pseudomonas aeruginosa [22]): > 64 µM; MBC (Pseudomonas aeruginosa [23]): > 64 µM; MBC (Pseudomonas aeruginosa [24]): > 64 µM; MBC (Pseudomonas aeruginosa [25]): > 64 µM; MBC (Pseudomonas aeruginosa [26]): > 64 µM; MBC (Pseudomonas aeruginosa [27]): > 64 µM; MBC (Salmonella typhimurium [28]): > 64 µM; MBC (Salmonella typhimurium [29]): > 64 µM; MBC [30]: > 64 µM; MBC (Acinetobacter baumannii [31]): > 64 µM; MBC (Klebsiella pneumoniae [32]): > 64 µM
3 | H-IKPIIKPIIKPIIKPI-NH2 | > 64 | > 64 | > 64 | > 64 | > 64 | > 64 | > 64 | > 64 | > 64 | > 64 | > 64 | > 64 | > 64 | > 64 | > 64 | > 64 | > 64 | > 64 | > 64 | > 64 | MBC (Escherichia coli [21]): > 64 µM; MBC (Pseudomonas aeruginosa [22]): > 64 µM; MBC (Pseudomonas aeruginosa [23]): > 64 µM; MBC (Pseudomonas aeruginosa [24]): > 64 µM; MBC (Pseudomonas aeruginosa [25]): > 64 µM; MBC (Pseudomonas aeruginosa [26]): > 64 µM; MBC (Pseudomonas aeruginosa [27]): > 64 µM; MBC (Salmonella typhimurium [28]): > 64 µM; MBC (Salmonella typhimurium [29]): > 64 µM; MBC [30]: > 64 µM; MBC (Acinetobacter baumannii [31]): > 64 µM; MBC (Klebsiella pneumoniae [32]): > 64 µM
